Measured values: ChEMBL document CHEMBL1153935, “4,4'-Dihydroxy-trans-stilbene, a resveratrol analogue, exhibited enhanced antioxidant activity and cytotoxicity” (Bioorg Med Chem, 2009)
pIC50: −log10 of the molar value. Activity calls are given as the source filed them. No cut-off for these calls is given here.

Assays:
HL-60 [1] = assay: Cytotoxicity against human HL60 cells after 48 hrs by MTT assay; assay type: functional, cell-based; conditions: for pIC50: HL-60, 48 h
HL-60 [2] = assay: Cytotoxicity against human HL60 cells at 10 uM after 48 hrs by MTT assay; assay type: functional
Erythrocyte [3] = assay: Inhibition of Fe(2+)/ascorbate-induced lipid peroxidation in human erythrocyte ghosts assessed as increase in inhibition period; assay type: functional, cell-based
Erythrocyte [4] = assay: Inhibition of Fe(2+)/ascorbate-induced lipid peroxidation in human erythrocyte ghosts assessed as inhibition of malondialdehyde formation per mg of protein at 1 uM after 30 mins; assay type: functional
HL-60 [5] = assay: Cytotoxicity against human HL60 cells at 20 uM after 48 hrs by MTT assay; assay type: functional
HL-60 [6] = assay: Cytotoxicity against human HL60 cells at 30 uM after 48 hrs by MTT assay; assay type: functional
Erythrocyte [7] = assay: Inhibition of Fe(2+)/ascorbate-induced lipid peroxidation in human erythrocyte ghosts assessed as inhibition of malondialdehyde formation at 5 uM; assay type: functional, cell-based
Erythrocyte [8] = assay: Inhibition of Fe(2+)/ascorbate-induced lipid peroxidation in human erythrocyte ghosts assessed as inhibition of malondialdehyde formation per mg of protein at 2 uM after 30 mins; assay type: functional
Erythrocyte [9] = assay: Inhibition of Fe(2+)/ascorbate-induced lipid peroxidation in human erythrocyte ghosts assessed as inhibition of malondialdehyde formation per mg of protein at 3 uM after 30 mins; assay type: functional
Erythrocyte [10] = assay: Inhibition of Fe(2+)/ascorbate-induced lipid peroxidation in human erythrocyte ghosts assessed as inhibition of malondialdehyde formation at 1 to 5 uM; assay type: functional, cell-based

**Q.** With `COc1cc([C@@H]2c3cc4c(cc3[C@@H](O[C@@H]3O[C@@H]5CO[C@@H](C)O[C@H]5[C@H](O)[C@H]3O)[C@H]3COC(=O)[C@H]23)OCO4)cc(OC)c1O` [ETOPOSIDE] as the compound, how does the pIC50 (HL-60 [1]) read?
**A.** The pIC50 was 5.48.

**Q.** `Oc1ccc(/C=C/c2cc(O)cc(O)c2)cc1` [RESVERATROL] was tested. Which Activity (HL-60 [2]) did it give?
**A.** Its Activity is 83%.

**Q.** And the Activity (Erythrocyte [3])?
**A.** Its Activity is “Dose-dependent effect”.

**Q.** What about the Activity (Erythrocyte [4]) of the same compound?
**A.** Its Activity is 1.33 nmol.

**Q.** What about the Activity (HL-60 [5]) of the same compound?
**A.** Its Activity is 72%.

**Q.** And the Activity (HL-60 [6])?
**A.** The Activity was 43%.

**Q.** What about the Activity (Erythrocyte [7]) of the same compound?
**A.** The Activity was “Active”.

**Q.** What about the Activity (Erythrocyte [8]) of the same compound?
**A.** The Activity was 0.61 nmol.

**Q.** And the Activity (Erythrocyte [9])?
**A.** The Activity was 0.18 nmol.

**Q.** And the Activity (Erythrocyte [10])?
**A.** The Activity was “Dose-dependent effect”.

**Q.** What about the Activity (HL-60 [1]) of the same compound?
**A.** The Activity was “Dose-dependent effect”.

**Q.** And the pIC50 (HL-60 [1])?
**A.** The pIC50 was 4.44.

**Q.** For `Oc1ccc(/C=C/c2ccc(O)cc2)cc1` [TRANS-4,4'-DIHYDROXYSTILBENE], which Activity (Erythrocyte [4]) is on record?
**A.** The Activity was 0.8 nmol.

**Q.** What about the Activity (Erythrocyte [8]) of the same compound?
**A.** The Activity was 0.45 nmol.

**Q.** And the Activity (Erythrocyte [9])?
**A.** Its Activity is 0.17 nmol.

**Q.** And the pIC50 (HL-60 [1])?
**A.** Its pIC50 is 5.19.
